Experimental data reported in ChEMBL document CHEMBL3734759, “Discovery of a new class of histone deacetylase inhibitors with a novel zinc binding group” (Medchemcomm, 2015).
pIC50, pKd: −log10 of the molar value.

Key:
[1] = target: Histone deacetylase 3 (Homo sapiens) (UniProt O15379); settings: at 20 µM;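 further: recombinant enzyme assay with Boc-Lys(Ac)-AMC substrate, fluorescence read on a microplate reader after 30–60 min incubation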
Description: Inhibition of human recombinant HDAC3 at 20 uM using Boc-Lys(Ac)-AMC as substrate after 30 to 60 mins by microplate reader assay

[2] = target: Histone deacetylase 2 (Homo sapiens) (UniProt Q92769); settings: at 20 µM;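 further: recombinant enzyme activity measured with the fluorogenic acetylated lysine substrate Boc-Lys(Ac)-AMC, read on a microplate reader after 30–60 min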
Chain of Histone deacetylase 2 (Homo sapiens) (Q92769 whole entry): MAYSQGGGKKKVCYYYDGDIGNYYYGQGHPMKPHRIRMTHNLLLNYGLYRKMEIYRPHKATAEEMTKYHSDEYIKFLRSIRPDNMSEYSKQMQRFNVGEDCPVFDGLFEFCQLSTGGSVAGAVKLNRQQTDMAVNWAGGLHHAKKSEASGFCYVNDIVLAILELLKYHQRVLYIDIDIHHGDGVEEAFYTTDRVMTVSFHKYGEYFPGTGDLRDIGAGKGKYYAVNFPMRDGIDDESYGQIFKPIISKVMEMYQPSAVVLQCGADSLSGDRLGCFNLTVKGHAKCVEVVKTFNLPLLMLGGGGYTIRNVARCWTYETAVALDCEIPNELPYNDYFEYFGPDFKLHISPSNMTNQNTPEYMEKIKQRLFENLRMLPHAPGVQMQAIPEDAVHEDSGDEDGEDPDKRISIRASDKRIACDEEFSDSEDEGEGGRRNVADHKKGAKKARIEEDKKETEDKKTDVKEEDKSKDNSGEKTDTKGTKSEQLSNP
Description: Inhibition of human recombinant HDAC2 at 20 uM using Boc-Lys(Ac)-AMC as substrate after 30 to 60 mins by microplate reader assay

[3] = Cytotoxicity against human MV411 cells assessed as growth inhibition after 24 hrs by MTS assay; assay type: functional, cell-based, MV4-11; settings: for pIC50: Homo sapiens, MV4-11, 24 h, read-out: IC50; for IC50: mv4-11
[4] = target: T1, Histone deacetylase (Homo sapiens) (UniProt Q13547+O15379+Q9UBN7+Q92769+Q9UQL6+Q8WUI4+Q9BY41+Q96DB2+P56524+Q9UKV0+Q969S8); assay: Inhibition of HDAC in human MV411 cells assessed as up regulation of p21 WAF1/CIP1 expression after 4 hrs by western blot analysis; assay type: cell-based; settings: MV4-11
[5] = Lipophilicity, LogP of the compound; assay type: physicochemical; settings: octanol/water
[6] = target: T1, Histone deacetylase (Homo sapiens); assay: Inhibition of HDAC in human MV411 cells assessed as increase in H3K9 aceylation after 4 hrs by western blot analysis; assay type: cell-based; settings: MV4-11
[7] = Binding affinity to Zn2+ assessed as Zn2+/compound complex formation by ITC analysis

Chain of Histone deacetylase 3 (Homo sapiens) (O15379 whole entry): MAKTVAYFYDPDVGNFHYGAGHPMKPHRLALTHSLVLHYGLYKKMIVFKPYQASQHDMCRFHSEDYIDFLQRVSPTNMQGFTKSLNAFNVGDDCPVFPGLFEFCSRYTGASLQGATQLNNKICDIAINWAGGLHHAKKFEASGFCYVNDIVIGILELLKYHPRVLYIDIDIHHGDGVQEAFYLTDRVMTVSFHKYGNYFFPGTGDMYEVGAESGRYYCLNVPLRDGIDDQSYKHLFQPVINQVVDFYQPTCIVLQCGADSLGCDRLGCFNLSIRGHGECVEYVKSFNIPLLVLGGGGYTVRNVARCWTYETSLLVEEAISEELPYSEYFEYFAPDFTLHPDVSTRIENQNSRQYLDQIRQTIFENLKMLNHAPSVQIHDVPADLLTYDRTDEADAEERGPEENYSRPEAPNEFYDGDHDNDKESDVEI

## O=C(NCCc1c[nH]c2ccccc12)c1coc(-c2ccccc2O)n1
[1]
  inhibition: 18.9%
[2]
  inhibition: 36%

## O=C(CNC(=O)c1coc(-c2ccccc2O)n1)Nc1ccccc1
[1]
  inhibition: 36.9%
[2]
  inhibition: 32%

## O=C(NC(c1ccccc1)c1ccccc1)c1coc(-c2ccccc2O)n1
[3]
  pIC50: 5.12
[1]
  inhibition: 37.8%
[4]
  inhibition: Dose-dependent effect
[2]
  inhibition: 54.1%
[5]
  logP: 3.91
[6]
  inhibition: Dose-dependent effect
[7]
  pKd: 6.69

## CC(/C=C/C(=O)NO)=C\[C@@H](C)C(=O)c1ccc(N(C)C)cc1
[2]
  inhibition: 99.2%

## O=C(O)c1coc(-c2ccccc2O)n1
[1]
  inhibition: 38.7%
[2]
  inhibition: 54.8%

## O=C(NCC(c1ccccc1)c1ccccc1)c1coc(-c2ccccc2O)n1
[3]
  pIC50: 4.40
[1]
  inhibition: 23.7%
[2]
  inhibition: 34.8%

## O=C(NCc1ccc(-c2ccccc2)cc1)c1coc(-c2ccccc2O)n1
[3]
  pIC50: < 4.00
[1]
  inhibition: 40.1%
[2]
  inhibition: 52.2%

## COC(=O)c1coc(-c2ccccc2O)n1
[1]
  inhibition: 39.1%
[2]
  inhibition: 30.1%

## O=C(Nc1ccc(-c2ccccc2)cc1)c1coc(-c2ccccc2O)n1
[3]
  IC50: Not Active
[1]
  inhibition: 30.2%
[2]
  inhibition: 31.9%

## O=C(Nc1ccccc1)c1coc(-c2ccccc2O)n1
[3]
  pIC50: 4.60
[1]
  inhibition: 22.5%
[2]
  inhibition: 29.5%

## O=C(NCCCCNCCC(c1ccccc1)c1ccccc1)c1coc(-c2ccccc2O)n1
[1]
  inhibition: 18.1%
[2]
  inhibition: 19.7%

## O=C(NCCCCNC(=S)NCCC(c1ccccc1)c1ccccc1)c1coc(-c2ccccc2O)n1
[1]
  inhibition: 3.7%
[2]
  inhibition: 1.3%

## O=C(NO)C(c1ccccc1)c1ccccc1
[1]
  inhibition: 76.4%

## O=C(NCc1cccc2ccccc12)c1coc(-c2ccccc2O)n1
[1]
  inhibition: 32.3%
[2]
  inhibition: 45.2%

## O=C(Nc1ccccc1)c1ccc(CNC(=O)c2coc(-c3ccccc3O)n2)cc1
[1]
  inhibition: 15.8%
[2]
  inhibition: 41.3%

## O=C(O)c1ccc(CNC(=O)c2coc(-c3ccccc3O)n2)cc1
[1]
  inhibition: 39.7%
[2]
  inhibition: 56.5%

## O=C(NCCCCN1C(=O)c2ccccc2C1=O)c1coc(-c2ccccc2O)n1
[1]
  inhibition: 11%
[2]
  inhibition: 25.4%

## O=C(NCCC(c1ccccc1)c1ccccc1)c1coc(-c2ccccc2O)n1
[3]
  IC50: Not Active
[1]
  inhibition: 37.5%
[2]
  inhibition: 28.7%

## O=C(NCCCCNC(=O)C(c1ccccc1)c1ccccc1)c1coc(-c2ccccc2O)n1
[1]
  inhibition: 4%
[2]
  inhibition: 0%
